The structures appear in SMILES notation. Values after ≈ are worked out from the molar mass of the structure shown.

For one assay, the system named is HepG2. The assay can be described thus: Cytotoxicity against human HepG2 cells assessed as reduction in cell viability measured for 48 hrs by SRB assay. Format: functional.
Conditions: not given
On to `Cc1ccccc1N(C)C(=O)C(c1cccnc1)N(Cc1cc(C(F)(F)F)ccc1F)C1CC1` (stereo not drawn), for which the CC50 is more than 30 µM. Still for that read-out and setting: the value for `O=C(C(c1cccnc1)N(Cc1cccc(C(F)(F)F)c1)C1CC1)N1CCCCC1` (stereo not drawn) was more than 20 µM; that for `Cc1ccccc1N(C)C(=O)C(c1cccnc1)N(Cc1cccc(OC(F)(F)F)c1)C1CC1` (stereo not drawn) was more than 30 µM; that for `CCCN(C(c1cncnc1)c1nnnn1-c1ccccc1C)C1(c2cccc(C(F)(F)F)c2)CC1` (stereo not drawn) was 13 µM.

Another assay deals with Plasmodium falciparum. The assay can be described thus: microbe, parasite or virus in culture. The following applies: 3D7, 48 h.
`Cc1nn(-c2ccccc2)c(-n2cncn2)c1-c1cc(-c2cc[nH]c2)nc2nc3ccccc3n12` yielded an IC50 of 0.09 µg/mL (≈ 0.197 µM). `Cc1nn(-c2ccccc2)c(-n2ccnc2)c1-c1cc(-c2cc[nH]c2)nc2nc3ccccc3n12`: the IC50 was found to be 0.07 µg/mL (≈ 0.153 µM). On to `Cc1nn(-c2ccccc2)c(-n2ccnc2)c1-c1cc(-c2cccs2)nc2nc3ccccc3n12`, for which half-maximal inhibition (IC50) was put at 1.75 µg/mL (≈ 3.7 µM). Consider `Cc1nn(-c2ccccc2)c(-n2cncn2)c1-c1cc(-c2ccc(F)cc2)nc2nc3ccccc3n12`, for which the IC50 was 0.04 µg/mL (≈ 0.0822 µM). In turn, `Cc1ccc(-c2cc(-c3c(C)nn(-c4ccccc4)c3-n3ccnc3)n3c(n2)nc2ccccc23)cc1` returned an IC50 of 1.84 µg/mL (≈ 3.82 µM). Take `Cc1nn(-c2ccccc2)c(-n2ccnc2)c1-c1cc(-c2ccc(F)cc2)nc2nc3ccccc3n12`: half-maximal inhibition (IC50) was put at 0.03 µg/mL (≈ 0.0618 µM).

In the next assay the test system is Plasmodium falciparum. Description: microbe, parasite or virus in culture. The following applies: 3D7.
Description: Antiplasmodial activity against Plasmodium falciparum 3D7
`Cc1cc(C)nc(NS(=O)(=O)c2ccc(-n3cc(COc4ccccc4)nn3)cc2)n1` returned an IC50 of more than 50 µg/mL. The same measure, in the same setting: in the case of `O=C(N/N=C/c1cn(-c2ccc(Cl)cc2)nn1)c1ccncc1` it was 14.5 µM; in that of `COc1ccc(-n2cc(/C=N/NC(=O)c3ccncc3)nn2)cc1`, 23.2 µM; in that of `Cc1cc(=O)oc2cc(OCc3cn(-c4ccc(S(=O)(=O)N5CCN(c6ccccn6)CC5)cc4)nn3)c(Cl)cc12`, 59.1 µg/mL. Same read-out and setting: the value for `O=S(=O)(c1ccc(-n2cc(COc3ccc(Cl)cc3)nn2)cc1)N1CCN(c2ccccn2)CC1` was more than 50 µg/mL; that for `O=S(=O)(c1ccc(-n2cc(COc3ccc(I)cc3)nn2)cc1)N1CCN(c2ccccn2)CC1` was 12 µg/mL. Take `O=C(N/N=C/c1cn(-c2ccccc2)nn1)c1ccncc1`: the IC50 was determined as 23.1 µM. The same measure, in the same setting: in the case of `COc1ccc2cc3[n+](cc2c1OCc1cn(-c2ccc(S(=O)(=O)N4CCN(c5ccccn5)CC4)cc2)nn1)CCc1cc2c(cc1-3)OCO2.[Cl-]` it was 1 µg/mL. For the compound `COc1ccc(-n2cc(-c3cncc4ccccc34)nn2)cn1`, the IC50 was 62 µM. Regarding `O=S(=O)(c1ccc(-n2cc(COc3ccc(Br)cc3)nn2)cc1)N1CCN(c2ccccn2)CC1`, the IC50 is 46 µg/mL. In turn, `CC/C=C\C/C=C\C/C=C\C/C=C\C/C=C\C/C=C\CCC(=O)O` [DOCONEXENT] yielded an IC50 of 0.004 µM. The compound `O=c1ccc2ccc(OCc3cn(-c4ccc(S(=O)(=O)N5CCN(c6ccccn6)CC5)cc4)nn3)cc2o1` came in with an IC50 of more than 73.5 µg/mL.

`Cc1n[nH]c2c1C(c1ccc(Cl)cc1)c1c(nc3oc(=O)c(C#N)c(N)c3c1N)O2` (stereo not drawn): inhibition was half-maximal at 0.84 µg/mL (IC50). On the same count and under the same terms, the value for `O=c1cc(OCc2cn(-c3ccc(S(=O)(=O)N4CCN(c5ccccn5)CC4)cc3)nn2)c2ccccc2o1` was 73.5 µg/mL; that for `Cc1cc(=O)oc2cc(OCc3cn(-c4ccc(S(=O)(=O)N5CCN(c6ccccn6)CC5)cc4)nn3)ccc12` was more than 71.7 µg/mL. The compound `O=S(=O)(c1ccc(-n2cc(COc3ccccc3)nn2)cc1)N1CCN(c2ccccn2)CC1` yielded an IC50 of 48.5 µg/mL. In turn, `COc1ccc(C2c3c(C)n[nH]c3Oc3nc4oc(=O)c(C#N)c(N)c4c(N)c32)cc1OC` (stereo not drawn) displayed an IC50 of 0.96 µg/mL. `O=S(=O)(c1ccc(-n2cc(COc3ccc(F)cc3)nn2)cc1)N1CCN(c2ccccn2)CC1` yielded an IC50 of more than 50 µg/mL. On the same count and under the same terms, the value for `Cc1n[nH]c2c1C(c1ccc(F)cc1)c1c(nc3oc(=O)c(C#N)c(N)c3c1N)O2` (stereo not drawn) was 1.48 µg/mL; that for `Cc1n[nH]c2c1C(c1ccc(Br)cc1)c1c(nc3oc(=O)c(C#N)c(N)c3c1N)O2` (stereo not drawn) was 1.85 µg/mL.

`O=C(N/N=C/c1cnn(-c2ccccc2)n1)c1ccncc1` registered an IC50 of 20.2 µM. For `O=[N+]([O-])c1ccc(OCc2cn(-c3ccc(S(=O)(=O)N4CCN(c5ccccn5)CC4)cc3)nn2)cc1`, the IC50 is more than 50 µg/mL. Compound `COc1ccccc1C(=O)/C=C/c1ccccn1` gave an IC50 of 0.48 µg/mL.

The record behind these values is ChEMBL document CHEMBL6087390, “Pyridine and Pyrimidine hybrids as privileged scaffolds in antimalarial drug discovery: A recent development” (Bioorg Med Chem Lett, 2024).
